Experiments:
human orexin-2 receptor = human orexin-2 receptor (Homo sapiens (Human), UniProt O43614); assay: hOX2R FLIPR Ca2+ flux assay; assay type: cell-based; conditions: CHO cells expressing human orexin-2 receptor; agonist 70 pM Ala-6,12 orexin-A
Experimental: In a typical experiment the OX1 and OX2 receptor antagonistic activity of the compounds of the present invention was determined in accordance with the following experimental method. For intracellular calcium measurements, Chinese hamster ovary (CHO) cells expressing the rat orexin-1 receptor or the human orexin-2 receptor, are grown in Iscove's modified DMEM containing 2 mM L-glutamine, […], 1% hypoxanthine-thymidine supplement, 100 U/ml penicillin, 100 μg/ml streptomycin and 10% heat-inactivated fetal calf serum (FCS). The cells are seeded at 20,000 cells/well into Becton-Dickinson black 384-well clear bottom sterile plates coated with poly-D-lysine. All reagents were from GIBCO-Invitrogen Corp. The seeded plates are incubated overnight at 37° C. and 5% CO2. Ala-6,12 human orexin-A as the agonist is prepared as a 1 mM stock solution in 1% bovine serum albumin (BSA) and diluted in assay buffer (HBSS containing 20 mM HEPES, 0.1% BSA and 2.5 mM probenecid, pH7.4) for use in the assay at a final concentration of 70 pM. Test compounds are prepared as 10 mM stock solution in DMSO, then diluted in 384-well plates, first in DMSO, then assay buffer. On the day of the assay, cells are washed 3 times with 100 μl assay buffer and then incubated for 60 min (37° C., 5% CO2) in 60 μl assay buffer containing […] Fluo-4AM ester, 0.02% pluronic acid, and 1% BSA. The dye loading solution is then aspirated and cells are washed 3 times with 100 μl assay buffer. 30 μl of that same buffer is left in each well. Within the Fluorescent Imaging Plate Reader (FLIPR, Molecular Devices), test compounds are added to the plate in a volume of 25 μl, incubated for 5 min and finally 25 μl of agonist is added. Fluorescence is measured for each well at 1 second intervals for 5 minutes and the height of each fluorescence peak is compared to the height of the fluorescence peak induced by 70 pM Ala-6,12 orexin-A with buffer in place of antagonist. For each antagonist, IC50 value (the concentration of compound needed to inhibit 50% of the agonist response) is determined. Alternatively, compound potency can be assessed by a radioligand binding assay (described in Bergman et. al. Bioorg. Med. Chem. Lett. 2008, 18, 1425-1430) in which the inhibition constant (Ki) is determined in membranes prepared from CHO cells expressing either the OX1 or OX2 receptor. The intrinsic orexin receptor antagonist activity of a compound which may be used in the present invention may be determined by these assays.

hOX1R = hOX1R (Homo sapiens, UniProt O43613); assay: hOX1R FLIPR Ca2+ flux assay; assay type: cell-based; conditions: CHO cells expressing orexin-1 receptor; agonist 70 pM Ala-6,12 orexin-A; read-out: hOX1R FLIPR IC50

Chain of human orexin-2 receptor (O43614 whole entry): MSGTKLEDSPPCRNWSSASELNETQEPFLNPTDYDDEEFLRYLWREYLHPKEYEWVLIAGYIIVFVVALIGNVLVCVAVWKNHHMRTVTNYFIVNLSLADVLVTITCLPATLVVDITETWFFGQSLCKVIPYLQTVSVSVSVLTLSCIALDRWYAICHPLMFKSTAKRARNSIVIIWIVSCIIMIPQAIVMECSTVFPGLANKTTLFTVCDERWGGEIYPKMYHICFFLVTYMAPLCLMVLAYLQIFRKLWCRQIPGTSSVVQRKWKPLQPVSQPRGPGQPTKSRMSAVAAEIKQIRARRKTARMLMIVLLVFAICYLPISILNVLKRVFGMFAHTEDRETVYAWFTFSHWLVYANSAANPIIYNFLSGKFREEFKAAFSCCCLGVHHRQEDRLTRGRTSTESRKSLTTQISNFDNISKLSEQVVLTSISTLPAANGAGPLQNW

Structure (SMILES)	IC50 (human orexin-2 receptor)	IC50 (hOX1R)
Cc1oc(C[C@H]2CCCCN2C(=O)c2ccccc2-n2nccn2)nc1C(C)(C)O [Example 1, (R)-(2-(2H-1,2,3-triazol-2-yl)phenyl)(2-((4-(2-hydroxypropan-2-yl)-5-methyloxazol-2-yl)methyl)piperidin-1-yl)methanone]	14 nM	18 nM
Cc1oc(C[C@H]2CCCCN2C(=O)c2ccccc2OC(F)(F)F)nc1C(C)(C)O [Example 9, (R)-(2-((4-(2-hydroxypropan-2-yl)-5-methyloxazol-2-yl)methyl)piperidin-1-yl)(2-(trifluoromethoxy)phenyl) methanone]	109 nM	348 nM
Cc1oc(C[C@H]2CCCCN2C(=O)c2ccccc2C2CCC2)nc1C(C)(C)O [Example 24, (R)-(2-cyclobutylphenyl)(2-((4-(2-hydroxypropan-2-yl)-5-methyloxazol-2-yl)methyl)piperidin-1-yl)methanone]	114 nM	184 nM
Cc1oc(C[C@H]2CCCCN2C(=O)c2ncccc2-c2ccccc2)nc1C(C)(C)O [Example 25, (R)-(2-((4-(2-hydroxypropan-2-yl)-5-methyloxazol-2-yl)methyl)piperidin-1-yl)(3-phenylpyridin-2-yl)methanone]	127 nM	240 nM
Cc1oc(C[C@H]2CCCCN2C(=O)c2ccccc2-c2ncccn2)nc1C(C)(C)O [Example 31, (R)-(2-((4-(2-hydroxypropan-2-yl)-5-methyloxazol-2-yl)methyl)piperidin-1-yl)(2-(pyrimidin-2-yl)phenyl)methanone]	47 nM	76 nM
